Measured values: patent US20160039852A1, “THERAPEUTIC USES OF BISPHOSPHONATES” (THE UNIVERSITY OF SHEFFIELD, priority 2013, published 2016)

Key:
[1] = tested on: 5T33 Multiple Myeloma line; test: γH2AX DNA damage foci in 5T33 multiple myeloma line after irradiation; assay type: cell-based, murine; details: 1 μM Zol for 3 days prior to 1Gy, γH2AX 4 h later
Procedure: 5T33MM were exposed to 1 μM Zol for 3 days prior to irradiation at 1Gy and assessment of γH2AX 4 h later (Zol). UI, are hMSC non irradiated, PBS, are hMSC irradiated in absence of Zol. Data are expressed as mean±SEM and were analysed by one way ANOVA and Bonferroni post-test for multiple comparison *p<0.05, **p<0.01, ***p<0.001
DNA damage was induced by exposing hMSC to ^137Cs Gamma source. Cells were washed with PBS and fixed with 4% Para-formaldehyde for 15mins. Cells were then washed with PBS permeabilized with 0.5% Triton-X (Sigma, UK) for 2mins and blocked with 5% normal goat serum (DAKO, Glostrup, Denmark) in PBS for 1 hr. This was followed by incubation with primary antibody, anti-phospho histone H2AX (Ser139) (Millipore, Massachusetts, USA) used at 1:800 in 5% normal goat serum, overnight at 4° C. Cells were then washed in PBS and incubated in secondary Anti mouse IgG Fluorescein Isothiocyanate (FITC) conjugated (Insight Biotechnology, Santa Cruz, USA) at 1:200 in PBS for 1 hour at room temperature. The cover-slips were mounted on slides with mounting media (VectaShield) containing 4′,6-diamidino-2-phenylindole (DAPI) to stain the nuclei. […] Five to seven fields consisting of 25 cells in total were randomly selected from a tile scan (20×) and individual cells viewed at 63× were then scored for γH2AX DNA damage foci using ImageJ 1.45 software (http://rsbweb.nih.gov/ij/).

unprenylated Rap1A = test: Western blot of unprenylated Rap1A in hMSC; assay type: cell-based, human; details: hMSC exposed to increasing amounts of Zol
Procedure: Three times 10^6 hMSC were lysed in mammalian cell lysis buffer (Mammalian cell lysis kit, Sigma-Aldrich, Dorset, UK) containing 250 mM Tris-5 mM EDTA, 750 mM sodium chloride, 0.5% sodium dodecyl sulphate, 2.5% deoxycholic acid and 5% Igepal supplemented with 10 μl of Proteinase inhibitors cocktail (Sigma-Aldrich, Dorset, UK) containing 4-(2-aminoethyl) benzenesulfonyl fluoride (AEBSF), pepstatin A, bestatin, leupeptin, aprotinin and trans-epoxysuccinyl-L-leucyl-amido(4-guanidino)-butane (E-64) according to manufacturer instruction. Phosphatase inhibitor cocktail (Sigma) was also added when preparing lysates for the detection of AKT, pAKT, P70S6K, and p-P70S6K.
Protein lysates (50 μg) were diluted in equal volume of 2× Laemmli buffer (Gibco) containing Dithiothreitol (DTT, Sigma,UK). The samples were heated at 95° C. for 5 minutes and loaded on a 12% Tris-glycine gel. […] Detection was carried out using enhanced chemi-luminescence plus ECL reaction kit (GE Healthcare, Buckinghamshire, UK) and quantification of protein expression was carried out using image J software.
(FPPS) enzyme in the mevalonate pathway and thereby reducing prenylation of small GTPases, such as Rap, Rac, Rho, Rheb (FIG. 3A). […] To this end, levels of unprenylated Rap1A were measured in hMSC exposed to increasing amounts of Zol.

[2] = tested on: human mesenchymal stem cells (hMSC); test: Expression of osteogenic and adipogenic differentiation markers in hMSC; assay type: cell-based; details: CBFA-1, OPN, ALP, OC, LPL, PPAR-γ normalised to L-32; 14 days supplements
murine tissues = test: Immuno-staining of γH2AX in murine tissue following irradiation; assay type: in vivo, C57BL6/J mice; details: 3Gy irradiation, Zol 125 μg/kg i.p. for 3 days, 12 h post irradiation
Description: Cells were viewed using in an Inverted Zeiss LSM 510 NLO microscope equipped with Argon (Ar) laser (488 nm) 30 mW to image the fluorescent marker FITC and UV lamp to image DAPI stained nuclei.

[3] = tested on: zebrafish embryo caudal fin; test: Zebrafish tail amputation and regeneration following irradiation; assay type: in vivo, Zebrafish (Danio Rerio H)
Procedure: Embryos from wild-type Zebrafish (Danio Rerio H) AB strain were collected at 16 cell stage (˜1.5 hours post fertilisation (hpf)) and grown in E3 Medium at 28° C. Embryos were treated with Zoledronate (1 μM) and/or FOH, GGOH at 24 hpf. DNA damage was induced by exposure to ^137Cs Gamma source at 48 hpf and after irradiation the embryo tails were amputated and the embryos were then incubated at 28° C. for a further 12 hrs in the presence of the chemicals. At the end of this period the chemicals were washed off and the embryos were incubated in fresh medium with no chemicals. The embryos were grown up to 120 hpf, following which they were fixed in 4% PFA overnight and then mounted in 100% glycerol. The tail lengths of embryos were measured taking the anal region as starting reference point and the end of the fin fold as the ending point of measurement.

[4] = tested on: normal human dermal fibroblasts; test: γH2AX DNA damage foci in human dermal fibroblasts after irradiation; assay type: cell-based; details: 1Gy, Zol (1 μM)
Procedure: (B) Number of yH2AX DNA damage foci in human dermal fibroblasts (n=4 cultures) not irradiated (UI) or exposed to irradiation (IR) 1Gy in the presence or absence of Zol (1 μM) and with the addition of Farnesol (FOH) or geranylgeraniol (GGOH).

O=P(O)(O)C(O)(Cn1ccnc1)P(=O)(O)O [Zoledronate]
DNA repair capacity (γH2AX foci) [1]: does not enhance the DNA repair capacity
expression of unprenylated Rap1A (unprenylated Rap1A): increased expression
expression of osteogenic and adipogenic differentiation markers [2]: increased
levels of DNA damage (γH2AX foci) in murine tissues (murine tissues): decreased levels of DNA damage
regeneration of the caudal fin at 120 hpf ([3]; 1Gy irradiation, Zol 1 μM, FIG. 6): enhances tail regeneration
regeneration of the caudal fin at 120 hpf ([3]; 1 and 3 Gy irradiation (data not shown)): same outcome
regeneration of the caudal fin at 120 hpf ([3]; 5 Gy irradiation, Zol 1 μM, n=15/group): enhances tail regeneration
regeneration of the caudal fin at 120 hpf ([3]; 5 Gy irradiation, Zol 1 μM, n=15/group, listed as Zol): rescued
DNA repair ability following irradiation (γH2AX foci) [4]: enhances DNA repair ability
